Source: patent publication US20260265262A1, “CDK2 INHIBITORS AND METHODS OF USING THE SAME” (Cedilla Therapeutics, Inc., priority 2022, published 2026)

Key:
Kuramochi cells = assay: IncuCyte cell proliferation assay; format: cell-based; conditions: Kuramochi cells labeled with mApple-H2B, cell count 0 to 72 hours, 20 μM top concentration; read-out: IncuCyte Kuramochi RB-WT: IC50
Protocol: IncuCyte® assay was used to measure the effect of disclosed compounds on cell proliferation. Fluorescent microscopy images of cells were taken immediately after compound treatment and 72 hours later. Image analysis software was used to obtain cell counts as a function of compound concentration. Kuramochi cells labeled with mApple-H2B were seeded on 384-well assay-ready plates. Plates were placed in an IncuCyte® (Sartorius) and scanned at 0 and 72 hours. IncuCyte® software was used to count the number of fluorescent nuclei in each well. The fold change in cell count from 0 to 72 hours in wells treated with increasing compounds concentrations (10 pts, 1/2 log dilution, 20 μM top concentration) was normalized to DMSO control wells. The normalized cell counts were fit with dose response curves and a […] was calculated.

CDK2/Cyclin E1 = CDK2/Cyclin E1 (Homo sapiens, UniProt P24941); assay: ADP-Glo Luminescent Kinase Assay (CDK2/E1-37C); format: biochemical; conditions: 0.18 nM CDK2/Cyclin E1, 100 μM ATP, 1.5 μM Histone H1, 37° C., 60 min pre-incubation; read-out: ADPGLO (CDK2/E1-37C): IC50
Protocol: Inhibition of CDK2/Cyclin E1 activity by the presence of small molecules was evaluated using ADP-Glo Luminescent Kinase Assay (Promega). Activated CDK2/Cyclin E1 was incubated with its substrate Histone H1 (SignalChem H10-54N) in the kinase reaction buffer (100 μM ATP, 50 mM HEPES pH 7.5, 10 mM MgCl2, 1 mM EDTA, 2 mM DTT, 0.01% Brij35, 0.5 mg/mL BSA). Luminescence was recorded with an Envision plate reader (PerkinElmer).
Dose titrations of inhibitors in 100% DMSO were combined with 0.36 nM CDK2/Cyclin E1 in reaction buffer. The mixtures were incubated for 60 minutes at 37° C. before the addition of ATP and Histone H1 substrate to initiate the kinase reaction. The final conditions were 0.18 nM CDK2/Cyclin E1, 100 μM ATP, and 1.5 μM Histone H1. The reactions were incubated at 37° C. for 90 minutes before being stopped with the addition of ADP-Glo reagent. This mixture was incubated at room temperature for 60 minutes before Kinase Detection Solution is added to generate luminescence. The stopped reactions were analyzed on an Envision plate reader. The conversion ratios were normalized to yield % activity, plotted against compound concentration, and fit to a four-parameter equation to determine the IC50 for each compound.

SMILES	IC50 (CDK2/Cyclin E1)	IC50 (Kuramochi cells)
CC1(C)C[C@@H]1C(=O)N1CC2(CN(C(=O)c3cncs3)C[C@H]2C(=O)N2CCN(CC3CCCCC3)C(CC(=O)NS(C)(=O)=O)C2)C1 (single isomer, unassigned) [Example I-95]	> 10000 nM	> 20 µM
C[C@@H](OCC12CCC(CC1)OC2)[C@H](NC(=O)[C@H]1CN(C(=O)c2cnc(O)cn2)CC12CN(C(=O)C1(C(F)(F)F)CC1)C2)C(=O)N1CCC(c2ccc(C(=O)O)c(C(F)(F)F)c2)CC1 (single isomer, unassigned) [I-89 2nd, 4-(1-(O-((2-oxabicyclo[2.2.2]octan-4-yl)methyl)-N-(6-(5-hydroxypyrazine-2-carbonyl)-2-(1-(trifluoromethyl)cyclopropane-1-carbonyl)-2,6-diazaspiro[3.4]octane-8-carbonyl)-L-threonyl)piperidin-4-yl)-2-(trifluoromethyl)benzoic acid]	500 to 5000 nM	> 20 µM
C[C@@H](OCC12CCC(CC1)OC2)[C@H](NC(=O)[C@@H]1CN(C(=O)c2cnn(Cc3ccccc3C(=O)O)c2)CC12CN(C(=O)C1(C(F)(F)F)CC1)C2)C(=O)NCCC1CCNCC1 (stereo in doubt) [Example I-102]	500 to 5000 nM	> 20 µM
C[C@@H](OCC12CCC(CC1)OC2)[C@H](NC(=O)[C@@H]1CN(C(=O)c2cnc(O)cn2)CC12CN(C(=O)C1(C(F)(F)F)CC1)C2)C(=O)N1CCC(c2ccc(C(F)(F)F)cc2C(=O)O)CC1 [Example I-1, 2-(1-(O-((2-oxabicyclo[2.2.2]octan-4-yl)methyl)-N—((S)-6-(5-hydroxypyrazine-2-carbonyl)-2-(1-(trifluoromethyl)cyclopropane-1-carbonyl)-2,6-diazaspiro[3.4]octane-8-carbonyl)-L-threonyl)piperidin-4-yl)-5-(trifluoromethyl)benzoic acid]	< 500 nM	> 20 µM
CC1(C)C[C@@H]1C(=O)N1CC2(CN(C(=O)c3cncs3)C[C@H]2C(=O)N2CCN(CC3CCCCC3)C(CC(=O)O)C2)C1 (stereo partly drawn) [Example I-6, 2-(1-(cyclohexylmethyl)-4-((S)-2-((S)-2,2-dimethylcyclopropane-1-carbonyl)-6-(thiazole-5-carbonyl)-2,6-diazaspiro[3.4]octane-8-carbonyl)piperazin-2-yl)acetic acid]	> 10000 nM	> 20 µM
C=CCOC(=O)N1CCC2(CC1)CCN(C(=O)[C@@H](NC(=O)[C@@H]1CN(C(=O)c3cnn(Cc4ccccc4C(=O)O)c3)CC13CN(C(=O)C1(C(F)(F)F)CC1)C3)[C@@H](C)OCC13CCC(CC1)OC3)CC2 [Example I-7, 2-((4-((S)-8-(((2S,3R)-3-((2-oxabicyclo[2.2.2]octan-4-yl)methoxy)-1-(9-((allyloxy)carbonyl)-3,9-diazaspiro[5.5]undecan-3-yl)-1-oxobutan-2-yl)carbamoyl)-2-(1-(trifluoromethyl)cyclopropane-1-carbonyl)-2,6-diazaspiro[3.4]octane-6-carbonyl)-1H-pyrazol-1-yl)methyl)benzoic acid]	< 500 nM	> 20 µM
C[C@@H](OCC12CCC(CC1)OC2)[C@H](NC(=O)[C@@H]1CN(C(=O)c2cnc(O)cn2)CC12CN(C(=O)[C@H]1CC1(C)C)C2)C(=O)N1CCC(c2ccc(C(F)(F)F)cc2C(=O)O)CC1 [Example I-10]	< 500 nM	> 20 µM
C[C@@H](OCC1(C(=O)O)CCCCC1)[C@H](NC(=O)[C@@H]1CN(C(=O)c2cnn(Cc3ccc(C(F)(F)F)cc3)c2)CC12CN(C(=O)C1(C(F)(F)F)CC1)C2)C(=O)N1CCC(c2nccs2)CC1 [Example I-76, 1-((((2R,3S)-4-oxo-4-(4-(thiazol-2-yl)piperidin-1-yl)-3-((S)-6-(1-(4-(trifluoromethyl)benzyl)-1H-pyrazole-4-carbonyl)-2-(1-(trifluoromethyl)cyclopropanecarbonyl)-2,6-diazaspiro[3.4]octane-8-carboxamido)butan-2-yl)oxy)methyl)cyclohexanecarboxylic acid]	5000 to 10000 nM	
C[C@H](OCC12CCC(CC1)OC2)[C@@H](NC(=O)[C@@H]1CN(C(=O)c2cnc(O)cn2)CC12CN(C(=O)C1(C(F)(F)F)CC1)C2)C(=O)N1CCC(c2ccc(C(F)(F)F)c(C(=O)O)c2)CC1 [Example I-82, 5-(1-(O-((2-oxabicyclo[2.2.2]octan-4-yl)methyl)-N—((S)-6-(5-hydroxypyrazine-2-carbonyl)-2-(1-(trifluoromethyl)cyclopropane-1-carbonyl)-2,6-diazaspiro[3.4]octane-8-carbonyl)-D-threonyl)piperidin-4-yl)-2-(trifluoromethyl)benzoic acid]		> 20 µM

Second part, led by results:

IC50 (CDK2/Cyclin E1)	SMILES	IC50 (Kuramochi cells)
< 500 nM	COC(=O)c1c(F)cc(C2CCN(C(=O)[C@@H](NC(=O)[C@@H]3CN(C(=O)c4cnn(Cc5ccc(C(F)(F)F)cc5)c4)CC34CN(C(=O)C3(C(F)(F)F)CC3)C4)[C@@H](C)OCC34CCC(CC3)OC4)CC2)cc1F (stereo in doubt) [Example I-2]	0.5 to 5 µM
> 10000 nM	COC(=O)C(C)(C)Oc1ccc(C2CCN(C(=O)[C@@H](NC(=O)[C@@H]3CN(C(=O)c4cnn(Cc5ccc(C(F)(F)F)cc5)c4)CC34CN(C(=O)C3(C(F)(F)F)CC3)C4)[C@@H](C)OCC34CCC(CC3)OC4)CC2)cc1C(F)(F)F (stereo in doubt) [Example I-5]	> 20 µM
> 10000 nM	C[C@@H](OCC1CCOCC1)[C@H](NC(=O)C1CN(C(=O)c2cnn(Cc3ccc(C(F)(F)F)cc3)c2)CC12CN(C(=O)C1(C(F)(F)F)CC1)C2)C(=O)N1CCC(c2ccc(C(=O)O)cc2)CC1 (stereo in doubt) [I-64 2nd, 4-(1-(O-((tetrahydro-2H-pyran-4-yl)methyl)-N—((S)-6-(1-(4-(trifluoromethyl)benzyl)-1H-pyrazole-4-carbonyl)-2-(1-(trifluoromethyl)cyclopropane-1-carbonyl)-2,6-diazaspiro[3.4]octane-8-carbonyl)-L-threonyl)piperidin-4-yl)benzoic acid]	> 20 µM
< 500 nM	C[C@@H](OCC12CCC(CC1)OC2)[C@H](NC(=O)[C@@H]1CN(C(=O)c2cnn(Cc3ccc(C(F)(F)F)cc3)c2)CC12CN(C(=O)C1(C(F)(F)F)CC1)C2)C(=O)N1CCC(c2ccccc2C(=O)O)CC1 [Example I-3, 2-(1-(O-((2-oxabicyclo[2.2.2]octan-4-yl)methyl)-N—((S)-6-(1-(4-(trifluoromethyl)benzyl)-1H-pyrazole-4-carbonyl)-2-(1-(trifluoromethyl)cyclopropane-1-carbonyl)-2,6-diazaspiro[3.4]octane-8-carbonyl)-L-threonyl)piperidin-4-yl)benzoic acid]	0.5 to 5 µM
< 500 nM	C[C@@H](OCC12CCC(CC1)OC2)[C@H](NC(=O)[C@@H]1CN(C(=O)c2cnn(Cc3ccc(C(F)(F)F)cc3)c2)CC12CN(C(=O)C1(C(F)(F)F)CC1)C2)C(=O)N1CCC(c2ccc(OC(C)(C)C(=O)O)c(C(F)(F)F)c2)CC1 [Example I-4]	> 20 µM
< 500 nM	COC(=O)c1ccccc1C1CCN(C(=O)[C@@H](NC(=O)[C@@H]2CN(C(=O)c3cnn(Cc4ccc(C(F)(F)F)cc4)c3)CC23CN(C(=O)C2(C(F)(F)F)CC2)C3)[C@@H](C)OCC23CCC(CC2)OC3)CC1 [Example I-11, methyl 2-(1-(O-((2-oxabicyclo[2.2.2]octan-4-yl)methyl)-N—((S)-6-(1-(4-(trifluoromethyl)benzyl)-1H-pyrazole-4-carbonyl)-2-(1-(trifluoromethyl)cyclopropane-1-carbonyl)-2,6-diazaspiro[3.4]octane-8-carbonyl)-L-threonyl)piperidin-4-yl)benzoate]	0.5 to 5 µM
< 500 nM	C[C@@H](OCC12CCC(CC1)OC2)[C@H](NC(=O)[C@@H]1CN(C(=O)c2cnn(Cc3ccc(C(F)(F)F)cc3)c2)CC12CN(C(=O)C1(C(F)(F)F)CC1)C2)C(=O)N1CCC(c2ccc(C(=O)O)cc2)CC1 [Example I-12]	> 20 µM
< 500 nM	COC(=O)c1ccc(C2CCN(C(=O)[C@@H](NC(=O)[C@@H]3CN(C(=O)c4cnn(Cc5ccc(C(F)(F)F)cc5)c4)CC34CN(C(=O)C3(C(F)(F)F)CC3)C4)[C@@H](C)OCC34CCC(CC3)OC4)CC2)cc1 [Example I-13]	0.5 to 5 µM
> 10000 nM	C[C@@H](OCC12CCC(CC1)OC2)[C@@H](CN1CCC(C(=O)O)CC1)NC(=O)[C@@H]1CN(C(=O)c2cnn(Cc3ccc(C(F)(F)F)cc3)c2)CC12CN(C(=O)C1(C(F)(F)F)CC1)C2 [Example I-97, 1-((2R,3R)-3-((2-oxabicyclo[2.2.2]octan-4-yl)methoxy)-2-((S)-6-(1-(4-(trifluoromethyl)benzyl)-1H-pyrazole-4-carbonyl)-2-(1-(trifluoromethyl)cyclopropane-1-carbonyl)-2,6-diazaspiro[3.4]octane-8-carboxamido)butyl)piperidine-4-carboxylic acid]	
